Results published in patent US6313174A, “Aminobenzophenones as inhibitors of interleukin and TNF” (Leo Pharmaceutical Products Ltd.A/S/ (L.o slashed.vens …, priority 1997, dated 2001).

Columns and labels:
TNF-α = assay: Inhibition of TNF-α secretion from LPS stimulated peripheral blood mononuclear cells (ELISA); format: cell-based; settings: LPS (1 μg/ml) stimulated human PBMC, 18 hours; read-out: The median inhibition concentration (IC50, nM) of TNF-α
Description: (§1) To study the effect of the compound of the present invention, in vitro, the inhibition of the IL-1β and TNF-α secretion was measured using the following procedure:
(§2) Cytokine production was measured in the media from lipopolysaccharide (LPS) stimulated peripheral blood mononuclear cells. The mononuclear cells were isolated from human peripheral blood by Lymphoprep® (Nycomed, Norway) fractionation and suspended in RPMI 1640 (growth medium) with foetal calv serum (FCS, 2%), at a concentration of 5×10^5 cells/ml. The cells were incubated in 24-well tissue culture plates in 1 ml aliquots. Test compounds were dissolved in dimethylsulfoxide (DMSO, 10 mM) and were diluted with the medium. Compounds were added to the cells for 30 minutes, then LPS (1 μg/ml final concentration) was added. The plates were incubated for 18 hours, and the concentration of IL-1β and TNF-α in the medium was determined by enzyme-linked immunosorbent assays. The median inhibitory concentrations (IC50) of the compounds were calculated.

PMN-superoxide = assay: Inhibition of PMN (polymorphonuclear) superoxide secretion; format: cell-based; settings: human PMN granulocytes, TNF-α primed, fMLP 10^-7 M; read-out: The median inhibition concentration (IC50, nM) of PMN-superoxide
Description: The compounds of the present invention also show similar activities in the ability to inhibit PMN (polymorphonuclear) superoxide secretion which is also indicative of potentially useful anti-inflammatory drugs. The compounds were tested using the following procedure:
Human polymorphonuclear (PMN) granulocytes were isolated from human blood by dextran sedimentation, Lymphoprep® fractionation and hypotonic lysis of contaminating erythrocytes.
Superoxide anion generation was measured as the superoxide dismutase inhibitable reduction of ferricytochrome C (Madhu, S. B. et al, Inflammation, 16, 241, (1992)).
The cells were suspended in Hanks' balanced salt solution, and incubated for 10 minutes at 37° C. with test compounds. The cells were primed by the addition of TNF-α (3 ng/ml final concentration) for 10 minutes, and then ferricytochrome C, (final concentration 750 μg/ml), bovine serum albumin (BSA, final concentration 1 mg/ml) and formyl-methionyl-leucyl-phenylalanine (fMLP, final concentration 10^-7 M) were added for 3 minutes.
The cells were chilled on ice, and were spun down. The optical densities in the cell-free supernatant was measured in a spectrophotometer.
The median inhibitory concentration (IC50) of the compounds was calculated.

IL-1β = assay: Inhibition of IL-1β secretion from LPS stimulated peripheral blood mononuclear cells (ELISA); format: cell-based; settings: LPS (1 μg/ml) stimulated human PBMC, 18 hours; read-out: The median inhibition concentration (IC50, nM) of IL-1β
Description: as §1, §2

myeloperoxidase (MPO) = assay: TPA induced murine chronic skin inflammation model, myeloperoxidase (MPO) activity in ear biopsies; format: in vivo, mice; settings: topical, twice daily on day 8, 9 and 10 and once on day 11
Description: (§3) To study the compounds of the present invention in vivo the 12--O--tetradecanoylphorbol-13-acetate (TPA) induced murine chronic skin inflammation model were used (De Young, L. M. et al, Agents Actions, 26, 335-341 (1989); Carlson, R. P. et al, Agents Actions, 17, 197-204 (1985); Alford, J. G. et al, Agents Action, 37, (1992); Stanley, P. L. et al, Skin Pharmacol, 4, 262-271 (1991)). The compounds were tested using the following procedure:
(§4) In groups of 6 female mice weighing 18-25 grams, ear skin inflammation was induced by multiple topical applications of TPA on alternate days during a 10 day period. The resulting inflammation was treated topically with compounds in acetone (20 μl/ear) twice daily on day 8, 9 and 10 and once on day 11. The increased ear thickness (ET, right ear thickness minus left ear thickness) was determined approximately 6 hours after the treatment, the mice were sacrificed and the myeloperoxidase (MPO)-activitywas determined in ear biopsies.

[1] = test system: TPA induced murine skin inflammation; assay: TPA induced murine chronic skin inflammation model, ear thickness (ET); format: in vivo, mice; settings: topical, twice daily on day 8, 9 and 10 and once on day 11
Description: as §3, §4

[2] = Spleen and thymus weight in the TPA induced murine skin inflammation model; format: in vivo, mice; settings: 0.1 mg/ear, topical
Description: as §3, §4

Row | SMILES | IC50 (TNF-α) [nM] | IC50 (PMN-superoxide) [nM] | IC50 (IL-1β) [nM] | % inhibition of MPO (myeloperoxidase (MPO); 0.1 mg/ear) [%] | % inhibition of ET ([1]; 0.1 mg/ear) [%] | Reduction of spleen and thymus weight [2] | % inhibition of MPO (myeloperoxidase (MPO); 0.03 mg/ear) [%] | % inhibition of ET ([1]; 0.03 mg/ear) [%]
1 | CCOC(=O)Nc1ccccc1Nc1ccc(C(=O)c2ccccc2)cc1 [Example 32, Ethyl N-(2-(4-benzoylphenylamino)phenyl)carbamate] | 130 | > 10000 | 100 |  |  |  |  | 
2 | Nc1ccccc1Nc1ccc(C(=O)c2ccccc2Cl)cc1 [Example 13, 4-(2-Aminophenylamino)-2'-chlorobenzophenone] | 200 | 40 | 160 |  |  |  |  | 
3 | Nc1ccccc1Nc1ccc(C(=O)c2ccccc2)cc1 [Example 1, 4-(2-Aminophenylamino)benzophenone] | 790 | 160 | 250 | 65 | 50 |  |  | 
4 | CCOC(=O)Nc1ccccc1Nc1ccc(C(=O)c2ccccc2C)c(Cl)c1 [Example 73, Ethyl N-(2-(4-(2-methylbenzoyl)-3-chlorophenylamino)phenyl)carbamate] | 5 | 5 | 32 |  |  |  |  | 
5 | Cc1ccc(S(=O)(=O)Nc2ccccc2Nc2ccc(C(=O)c3ccccc3)cc2)cc1 [Example 27, N-(2-(4-Benzoylphenylamino)phenyl)-4-toluenesulfonamide] |  |  |  | 48 | 44 |  |  | 
6 | Nc1ccc(Nc2ccc(C(=O)c3ccccc3)cc2)cc1 [Example 2, 4-(4-Aminophenylamino)benzophenone] |  |  |  | 76 | 40 |  |  | 
7 | C[C@]12CCC(=O)C=C1CC[C@@H]1[C@@H]2[C@@H](O)C[C@@]2(C)[C@H]1CC[C@]2(O)C(=O)CO [Hydrocortisone, reference compound] |  |  |  | 69 | 58 | Reduction of spleen and thymus weight | 51 | 36
8 | Cc1ccccc1C(=O)c1ccc(Nc2ccccc2N)cc1Cl [Example 56, 4-(2-Aminophenylamino)-2-chloro-2'-methylbenzophenone] | 7.1 | 5 | 13 |  |  |  |  | 
